Patent US20200181709A1, “METHODS OF DETECTION AND TREATMENT OF UROTHELIAL CANCER” (THE JOHNS HOPKINS UNIVERSITY, priority 2015, published 2020)
“Also recorded” adds a separate entry of the source.

Tests used:
[1] = tested on: CCND2 expression in UCC cell lines; assay: Q-RT-PCR of CCND2 expression after 5-aza-dc and/or TSA treatment of UCC cell lines; format: cell-based; conditions: 5 μM 5-aza-dc for 5 days, vs PBS control
Description: (§1) UCC cells were seeded in 75 cm2 culture flasks at a density of […] and incubated at 37° C. in 5% CO2/95% air overnight. Cells were then treated with 5μM of 5-aza-dc (Sigma Chemical, Sigma, USA) for 5 days. […] Additionally, combination treatment with 5-aza-dc and TSA was performed by adding 5μM of 5-aza-dc daily for 5 days and TSA (300 nmol/L; Sigma) was added to the medium for the final 24 hours. […] PBS (phosphate buffered saline) alone was used as a control to exclude non-specific solvent effects on cells. All experiments were run independently twice. RNA was extracted using Qiazol Lysis reagent (Qiagen, Valencia, Calif.) according to the manufacturer's instructions. One microgram of total RNA was used for cDNA conversion using the Quantitect Reverse Transcription Kit (Qiagen, Valencia, Calif.), following manufacturer's protocol. Q-RT-PCR was performed using the SYBR Green chemistry in a 7900HT Real-Time PCR System (Applied Biosystems, Foster City, CA). […] The RT-PCR primer sequences are available in Supplementary Table 2B. […] Quantitative reverse transcriptase PCR was performed to determine whether promoter methylation of CCNA1 and CCND2 inversely correlated with their expression. […]

[2] = tested on: CCNA1 expression in UCC cell lines; assay: Q-RT-PCR of CCNA1 expression after 5-aza-dc and/or TSA treatment of UCC cell lines; format: cell-based; conditions: SW780 and J82 cell lines; 5 μM 5-aza-dc for 5 days; vs PBS control
Description: as §1

Nc1ncn([C@H]2C[C@H](O)[C@@H](CO)O2)c(=O)n1 [5-aza-dc, 5-aza-deoxycytidine]
CCND2 expression (real-time RT-PCR) ([1]; HT1376 cell line): overexpression was observed after 5-aza-dc treatment only (not significant)
CCND2 expression (real-time RT-PCR) ([1]; UMUC-3, J82 and T24 cell lines): Reactivation of CCND2 was observed
CCNA1 expression (real-time RT-PCR) [2]: re-expression of CCNA1; also recorded: Reactivation of CCNA1 was observed
